Measured values taken from ChEMBL document CHEMBL1125772, “Synthesis and receptor binding of enantiomeric N-substituted cis-N-[2-(3,4-dichlorophenyl)ethyl]-2-(1-pyrrolidinyl)cyclohexylamines as high-affinity sigma receptor ligands” (J Med Chem, 1991).

Biological target: Kappa-type opioid receptor (Cavia porcellus, UniProt P41144)
Test: Compound was tested for the inhibitory concentration against opioid receptor kappa by using [3H]bremazocine as radioligand in guinea pig brain; No inhibition; call rule not given here

Kappa-type opioid receptor, sequence (P41144 whole entry): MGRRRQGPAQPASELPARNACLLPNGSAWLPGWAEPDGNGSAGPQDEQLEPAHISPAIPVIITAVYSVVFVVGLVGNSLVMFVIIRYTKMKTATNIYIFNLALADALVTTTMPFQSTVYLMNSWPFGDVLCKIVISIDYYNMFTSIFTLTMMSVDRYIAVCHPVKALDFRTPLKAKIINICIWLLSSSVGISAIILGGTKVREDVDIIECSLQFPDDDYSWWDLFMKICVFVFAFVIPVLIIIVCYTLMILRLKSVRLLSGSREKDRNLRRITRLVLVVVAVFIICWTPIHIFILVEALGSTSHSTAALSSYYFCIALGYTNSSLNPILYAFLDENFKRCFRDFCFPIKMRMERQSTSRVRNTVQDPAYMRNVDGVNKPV

Clc1ccc(CCN[C@@H]2CCCC[C@@H]2N2CCCC2)cc1Cl
Ki: Not Active
